Assay results as given in patent US20030134859A1 (SANKYO COMPANY, LIMITED, priority 2000, published 2003).
Read-outs that look alike come from different tables or passages of the source.

Columns and labels:
leptin production = experiment: Enhancing activity for leptin production in adipocytes (ELISA); format: cell-based, rat; conditions: leptin concentration as % of control group
How it was run: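 Collagenase-dispersed epididymal adipocytes from 6-week-old male Wistar Imamichi rats, cultured in DMEM/F-12 (1:1) with test compound at final 1 µM, 100 nM, 10 nM or 1 nM (0.1% DMSO) for 24 h at 37 °C, 5% CO2. Leptin in filtrate measured by ELISA; activity = treated/DMSO-control leptin × 100 (%).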

Rat white adipocytes = experiment: Inhibition of the differentiation of adipocytes (Oil Red O); format: cell-based; conditions: 100 nM test compound, 5 days, Oil Red O ABS550, control = 100%, blank = 0%, Table 3; for activity at 0.1 µM: Rattus norvegicus, Adipocyte, 120 h, read-out: Rate of Differentiation (%)
How it was run: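 Rat white preadipocytes, 5,000 cells/well, given differentiation medium with compound at 100 nM final (0.1% DMSO) for 5 days at 37 °C. Lipid stained with Oil Red O, eluted in DMSO, read at 550 nm; differentiation % relative to DMSO control (100%) and blank (0%).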

[1] = Rattus norvegicus, Adipocyte, 24 h, 1 μM, read-out: Facilitating activity to produce leptin
[2] = Rattus norvegicus, Adipocyte, 24 h, 10 nm, read-out: Facilitating activity to produce leptin
[3] = Rattus norvegicus, Adipocyte, 24 h, 100 nm, read-out: Facilitating activity to produce leptin

O=C(Nc1ccc(-c2ccc(NC(=S)Nc3cccc(F)c3)cc2)cc1)c1cc([N+](=O)[O-])ccc1Cl [Example 245, N-[4-[4-[(3-Fluorophenyl)aminothiocarbonylamino]phenyl]phenyl]-(2-chloro-5-nitrophenyl)carboxamide] showed an activity at 1 µM (leptin production; [1]) of 111%, an activity at 0.01 µM (leptin production; [2]) of 111% and an activity at 0.1 µM (Rat white adipocytes) of 36.1%.
Compound CCOC(=O)NC(=S)Nc1ccc(-c2ccc(NC(=O)c3cc([N+](=O)[O-])ccc3Cl)cc2)cc1 [Example 251, N-[4-[4-(Ethoxycarbonylaminothiocarbonylamino)phenyl]phenyl]-(2-chloro-5-nitrophenyl)carboxamide] has an activity at 0.01 µM (leptin production; [2]) of 111%, an activity at 0.1 µM (leptin production; [3]) of 107% and an activity at 0.1 µM (Rat white adipocytes) of 39.9%.
O=C(Nc1ccc(-c2ccc(NC(=S)Nc3ccccc3)cc2)cc1)c1cc([N+](=O)[O-])ccc1Cl [Example 252, N-[4-[4-(Phenylaminothiocarbonylamino)phenyl]phenyl]-(2-chloro-5-nitrophenyl)carboxamide] gave an activity at 1 µM (leptin production; [1]) of 108%, an activity at 0.01 µM (leptin production; [2]) of 110% and an activity at 0.1 µM (leptin production; [3]) of 113%. The activity at 0.1 µM (Rat white adipocytes) was 36.7%.
O=C(Nc1ccc(-c2ccc(NC(=O)c3cc([N+](=O)[O-])ccc3Cl)cc2)cc1)Nc1ccccc1[N+](=O)[O-] [Example 254, N-[4-[4-(2-Nitrophenylaminocarbonylamino)phenyl]phenyl]-(2-chloro-5-nitrophenyl)carboxamide] showed an activity at 1 µM (leptin production; Rattus norvegicus, Adipocyte, 1 μM, 24 hr, read-out: Facilitating activity to produce leptin) of 109%, an activity at 0.01 µM (leptin production; Rattus norvegicus, Adipocyte, 10 nm, 24 hr, read-out: Facilitating activity to produce leptin) of 111% and an activity at 0.1 µM (leptin production; Rattus norvegicus, Adipocyte, 100 nm, 24 hr, read-out: Facilitating activity to produce leptin) of 106%. The activity at 0.1 µM (Rat white adipocytes) was 52.8%.
For O=C(NC(=S)NCCc1ccc(NC(=O)c2cc([N+](=O)[O-])ccc2Cl)cc1)c1ccccc1 [Example 271, N-[4-(2-Phenylcarbonylaminothiocarbonylaminoethyl)phenyl]-(2-chloro-5-nitrophenyl)carboxamide], the activity at 0.01 µM (leptin production; [2]) was 121%, the activity at 0.1 µM (leptin production; [3]) was 115% and the activity at 0.1 µM (Rat white adipocytes) was 45.4%.
CCS(=O)(=O)N(c1ccc(-c2ccc(NC(=O)c3cc([N+](=O)[O-])ccc3Cl)cc2)cc1)S(=O)(=O)CC [Example 276, N-[4-[4-(N,N-Diethanesulfonylamino)phenyl]phenyl]-(2-chloro-5-nitrophenyl)carboxamide] was tested, and the activity at 1 µM (leptin production; [1]) was 117%, the activity at 0.001 µM (leptin production; Rattus norvegicus, Adipocyte, 24 h, 1 nm, read-out: Facilitating activity to produce leptin) was 108% and the activity at 0.01 µM (leptin production; [2]) was 112%. It also gave an activity at 0.1 µM (leptin production; [3]) of 123% and an activity at 0.1 µM (Rat white adipocytes) of 14.9%.
“N-[4-(4-Methylbenzoylamino)phenyl]phenyl]-(2-chloro-5-nitrophenyl)carboxamide [Example 122]” was tested, and the “Facilitating activity to produce leptin” value (leptin production; 1 μM, 24 hr) was 128.5%, the “Facilitating activity to produce leptin” value (leptin production; 100 nm, 24 hr) was 128.5% and the “Rate of Differentiation (%)” value (Rat white adipocytes) was 78.4%.
“N-[4-(Benzenesulfonylaminophenyl)phenyl]-(2-chloro-5-nitrophenyl)carboxamide [Example 128]” was tested, and the “Facilitating activity to produce leptin” value (leptin production; 1 μM, 24 hr) was 137.3%, the “Facilitating activity to produce leptin” value (leptin production; 10 nm, 24 hr) was 108.8% and the “Facilitating activity to produce leptin” value (leptin production; 100 nm, 24 hr) was 130.8%. For the same compound, the “Rate of Differentiation (%)” value (Rat white adipocytes) was 35.4%.
In the case of “N-[4-[4-(Pyrrolidin-1-ylamino)phenyl]phenyl]-(2-chloro-5-nitrophenyl)carboxamide [Example 171]”, the “Facilitating activity to produce leptin” value (leptin production; 1 μM, 24 hr) was 126.7%, the “Facilitating activity to produce leptin” value (leptin production; 1 nm, 24 hr) was 113.2% and the “Facilitating activity to produce leptin” value (leptin production; 10 nm, 24 hr) was 115.4%. For the same compound, the “Facilitating activity to produce leptin” value (leptin production; 100 nm, 24 hr) was 128.1% and the “Rate of Differentiation (%)” value (Rat white adipocytes) was 43.0%.
